What was measured:
3T3-L1 cells = assay: Adiponectin concentration in culture supernatant of 3T3-L1 cells (LANCE method); format: cell-based, mouse; settings: for Concentration of adiponectin in the case of adding one kind of amino acids to Zero medium: 3T3-L1 culture supernatant after 72 hour incubation, amino acid at fourfold of that in Full medium, average values, N=2, Zero medium 61; for concentration of adiponectin in the culture supernatant in mediums to which the amino acid was added: amino acid added to Zero medium at fourfold of Full medium; for concentration of adiponectin in the culture supernatant in mediums to which the amino acid was added / concentration of adiponectin in mediums without the amino acid: 72 hour incubation; for production of adiponectin as compared with Zero medium (FIG. 1): 3T3-L1 cells, 72 hours, amino acid concentration changed in Zero medium, mixture equimolar; for concentration of adiponectin in mediums without the amino acid: amino acid removed from Full medium
Description: 3T3-L1 cells were suspended in D-MEM medium containing 10% fetal bovine serum to become 1.5×10^5 cells/mL and seeded. After the incubation in the CO2 incubator at 37° C. for 72 hours, the medium was removed by suction. Then, the medium was exchanged for D-MEM medium containing 10 ug/mL of insulin, 1 uM of dexamethazone, 0.5 mM of IBMX (3-isobutyl-1-methylxanthine) and 10% fetal bovine serum, and further incubated in the CO2 incubator at 37° C. for 48 hours. After removing the medium, it was further exchanged for the medium wherein the concentrations of amino acids were changed, with addition of 10% dialyzed fetal bovine serum (F-0392, by SIGMA), and further incubated in CO2 incubator at 37° C. for 72 hours.
D-MEM medium contains, as amino acids, 30 mg/L of glycine (Gly); 35.6 mg/L of alanine (Ala); 42 mg/L of serine (Ser); 95 mg/L of threonine (Thr); 63 mg/L of cysteine (Cys)/2HCl; 30 mg/L of methionine (Met); 1168 mg/L of glutamine (Gln); 52.8 mg/L of asparagine (Asn); 58.8 mg/L of glutaminic acid (Glu); 106.4 mg/L of asparaginic acid (Asp); 94 mg/L of valine (Val); 105 mg/L of leucine (Leu); 105 mg/L of isoleucine (Ile); 66 mg/L of phenylalanine (Phe); 208 mg/L of tylosin (Tyr)/2Na/2H2O; 16 mg/L of triptophan (Trp); 146 mg/L of lysine (Lys)/HCl; 84 mg/L of arginine (Arg); 42 mg/L of histidine (His)/HCl/H2O; and 46 mg/L of proline (Pro). Regarding the expression of the mediums, for example, Δ Met indicates the medium having the same compositions of vitamins and salts as those of D-MEM medium and said medium wherein one kind of amino acids, methionine (Met), is removed. Full medium indicates the one containing all amino acids, and Zero medium indicates the one removing all amino acids.
Eu (Europium) chelate labeling of anti-mouse adiponectin antibody (AF1119, by R&D Systems) was conducted by using 100 ug of LANCE Eu-W1024-ITC chelate (AD0013 by Perkin Elmer), which is a Eu chelate labeling reagent, to 200 μg of the antibody in accordance with the method described in the manual. Biotin labeling of anti-mouse adiponectin antibody (AF1119, by R&D Systems) was conducted by using 26.8 ug of NHS-Biotin (1418165, Biotin Labeling Kit, by Boehringer Mannheim), which is a biotin labeling reagent, to 100 μg of the antibody in accordance with the method described in the manual.
The amount of adiponectin in the cell culture supernatant was measured as follows. The culture supernatant was diluted tenfold with TBS (Tris-buffered saline; 20 mM Tris-HCl pH7.4, 0.15M NaCl) containing 0.1% bovine serum albumin (BSA), and 10 μL thereof was mixed with 300 ng/mL of the Eu chelate labeled antibody, 300 ng/mL of the biotin labeled antibody and 10 μL of a solution (TBS containing 0.1% BSA) containing 2.5 μg/mL of Streptavidin-APC (AD0201, by Perkin Elmer) on the 384-well plate. After preserving the mixture at room temperature for 2 days, LANCE count was measured by using ARVO-SX multilabel counter (by Perkin Elmer) in accordance with the protocol of the LANCE method. At the same time, the mouse adiponectin preparation (8060-K, by LINCO) was also measured, and the concentration of adiponectin in the culture supernatant was calculated from the calibration curve of the preparation.

ob/ob mice [1] = assay: Non-fasting blood glucose of ob/ob mice given experimental diets; format: in vivo, mouse; settings: experimental diet containing 4%, 17 days
Description: (§1) Male ob/ob mice of 5 week old (purchased from Charles River Laboratories Japan, Inc.) were preliminarily fed by a basic diet containing 25% by weight ratio of fats. Then, they were divided into groups so that their body weights and non-fasting blood glucose were the same between the groups. The used basic diet contained 17% by weight of casein and 48% by weight of starch in addition to 25% of lipids. Then, an experimental diet (containing 25% of fats) containing 4% of BCAA (its composition is a mixture of Leu, Ile and Val; their weight ratio is […]=1:1:1), Leu or Ile was provided to them. The control group was given an experimental diet wherein casein was increased by 4% from the basic diet instead of the amino acids (Control Group). As for the composition of each experimental diet, the starch content was adjusted so that each calorie per unit weight became the same. On the 17th day of provision of the experimental diet, their blood was collected and their blood glucose was measured to determine the adiponectin concentration in plasma. […] After extracting RNA, adiponectin mRNA was determined. The blood glucose of a mouse was measured by collecting 6 μL of its blood from the caudal vein and using a Fuji […] system (produced by FUJIFILM Medical Co., Ltd.). The adiponectin concentration in plasma was measured by the following method.

ob/ob mice [2] = assay: Adiponectin concentration in plasma of ob/ob mice given experimental diets; format: in vivo, mouse; settings: experimental diet containing 4%, 17 days
Description: as §1, with “As for the composition of each experimental diet, the starch content was adjusted so that each calorie per unit weight became the same.” left out, “method. […] After leaving the mixture at room temperature for 2 days, LANCE count was measured by using ARVO-SX multilabel counter (by Perkin Elmer) in accordance with the protocol of the LANCE method. […]” for “method.”

adiponectin mRNA = assay: Adiponectin mRNA in subcutaneous fats of ob/ob mice given experimental diets; format: in vivo, mouse; settings: 23rd day of 4% diet, amended with β-actin mRNA
Description: Male ob/ob mice of 5 week old (purchased from Charles River Laboratories Japan, Inc.) were preliminarily fed by a basic diet containing 25% by weight ratio of fats. Then, they were divided into groups so that their body weights and non-fasting blood glucose were the same between the groups. The used basic diet contained 17% by weight of casein and 48% by weight of starch in addition to 25% of lipids. Then, an experimental diet (containing 25% of fats) containing 4% of BCAA (its composition is a mixture of Leu, Ile and Val; their weight ratio is Leu:Ile:Val=1:1:1), Leu or Ile was provided to them. The control group was given an experimental diet wherein casein was increased by 4% from the basic diet instead of the amino acids (Control Group). As for the composition of each experimental diet, the starch content was adjusted so that each calorie per unit weight became the same. On the 17th day of provision of the experimental diet, their blood was collected and their blood glucose was measured to determine the adiponectin concentration in plasma. Further, on the 23rd day after starting the provision of the experimental food, autopsy was conducted, and subcutaneous fats were collected to freeze for preservation. After extracting RNA, adiponectin mRNA was determined. […]

Row | SMILES | Concentration of adiponectin in the case of adding one kind of amino acids to Zero medium (3T3-L1 cells) [ng/mL] | concentration of adiponectin in the culture supernatant in mediums to which the amino acid was added (3T3-L1 cells) | production of adiponectin as compared with Zero medium (FIG. 1) (3T3-L1 cells) | non-fasting blood glucose as compared with before the start of providing the diet (FIG. 2) (ob/ob mice [1]) | adiponectin concentration in plasma as compared with before the start of providing the diet (FIG. 3) (ob/ob mice [2]) | amount of adiponectin mRNA in adipose tissues (FIG. 5) (adiponectin mRNA) | concentration of adiponectin in mediums without the amino acid (3T3-L1 cells)
1 | C[C@H](N)C(=O)O [Ala, alanine] | 98 | increased | – | – | – | – | –
2 | CC(C)C[C@H](N)C(=O)O [Leu, leucine] | – | – | increase of the production of adiponectin was seen | significantly decreased | tended to increase | tended to increase | –
3 | N[C@@H](CS)C(=O)O [Cys, cysteine] | 83 | increased | – | – | – | – | significantly decreased
4 | CC(C)[C@H](N)C(=O)O [Val, valine] | 83 | increased | increase of the production of adiponectin was seen | – | – | – | significantly decreased
5 | NC(=O)CC[C@H](N)C(=O)O [Gln, glutamine] | 21 | – | – | – | – | – | –
6 | CSCC[C@H](N)C(=O)O [Met, methionine] | 66 | – | – | – | – | – | significantly decreased
7 | CC[C@H](C)[C@H](N)C(=O)O [Ile, isoleucine] | 119 | increased | increase of the production of adiponectin was seen | significantly decreased | tended to increase | tended to increase | –
